Our source for the ED50 values is patent US5177096A, “Substituted 5-((tetrazolyl)alkenyl)imidazoles and pharmaceutical methods of use thereof” (SmithKline Beecham Corporation, priority 1990, dated 1993).

Read-outs that look alike come from different tables or passages of the source.

The test system of this assay is pressor response to angiotensin II. Nature of the assay: Inhibition of pressor response to angiotensin II in conscious rats. It counts as in vivo. Particulars: Rattus norvegicus, read-out: IC50 (dose of compound needed to produce 50% inhibition of the control response to angiotensin II). The method, then:
Angiotensin II antagonist activity of the compounds of Formula (I) is assessed by in vitro and in vivo methods. In vitro antagonist activity is determined by the ability of the compounds to compete with ^125 I-angiotensin II for binding to vascular angiotensin II receptors and by their ability to antagonize the contractile response to angiotensin II in the isolated rabbit aorta. In vivo activity is evaluated by the efficacy of the compounds to inhibit the pressor response to exogenous angiotensin II in conscious rats and to lower blood pressure in a rat model of renin dependent hypertension.
Rats are prepared with indwelling femoral arterial and venous catheters and a stomach tube (Gellai et al., Kidney Int. 15:419, 1979). Two to three days following surgery the rats are placed in a restrainer and blood pressure is continuously monitored from the arterial catheter with a pressure transducer and recorded on a polygraph. The change in mean arterial pressure in response to intravenous injections of […] angiotensin II is compared at various time points prior to and following the administration of the compounds intravenously or orally at doses of 3 to 300 mg/kg. The dose of compound needed to produce 50% inhibition of the control response to angiotensin II (IC50) is used to estimate the potency of the compounds.

Consider `CCCCc1ncc(/C=C(\Cc2cccs2)c2nnn[nH]2)n1Cc1ccccc1Cl` [Example 1, (E)-1-[2-n-Butyl-1-{(2-chlorophenyl)methyl}-1H-imidazol-5-yl]-2-(1H-tetrazol-5-yl)-3-(2-thienyl)-1-propene], for which the ED50 is, setting by setting: (iv) 8 mg/kg; (po, orally) 13 mg/kg.
